Experimental data from PubChem BioAssay (NCI).
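Values below derive from 48-hour exposures of cells grown in 96-well plates, with endpoints linearly interpolated between the two concentrations bracketing the appropriate inhibition level. TGI is the concentration that stops growth completely.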

Legend:
Test in all cases: NCI anticancer screen, dose series, 48 h
MDA-N = test system: MDA-N
RPMI-8226 leukemia = test system: RPMI-8226 leukemia
DU-145 prostate = test system: DU-145 prostate
MOLT-4 leukemia = test system: MOLT-4 leukemia
M14 melanoma = test system: M14 melanoma
SK-OV-3 ovarian = test system: SK-OV-3 ovarian
NCI-H226 lung = test system: NCI-H226 lung
A498 renal = test system: A498 renal
SNB-75 CNS = test system: SNB-75 CNS
UACC-257 melanoma = test system: UACC-257 melanoma
NCI-H23 lung = test system: NCI-H23 lung
MDA-MB-435 = test system: MDA-MB-435
SK-MEL-28 melanoma = test system: SK-MEL-28 melanoma
BT-549 breast = test system: BT-549 breast
SK-MEL-2 melanoma = test system: SK-MEL-2 melanoma
HOP-62 NSCLC = test system: HOP-62 NSCLC
PC-3 prostate = test system: PC-3 prostate
U251 CNS = test system: U251 CNS
OVCAR-5 ovarian = test system: OVCAR-5 ovarian
SW-620 colon = test system: SW-620 colon
SN12C renal = test system: SN12C renal
ACHN renal = test system: ACHN renal
SF-295 CNS = test system: SF-295 CNS
UO-31 renal = test system: UO-31 renal
UACC-62 melanoma = test system: UACC-62 melanoma
MALME-3M melanoma = test system: MALME-3M melanoma
A549 NSCLC = test system: A549 NSCLC
K-562 leukemia = test system: K-562 leukemia
HT29 colon = test system: HT29 colon
OVCAR-4 ovarian = test system: OVCAR-4 ovarian
CAKI-1 renal = test system: CAKI-1 renal
SR leukemia = test system: SR leukemia
LOX IMVI melanoma = test system: LOX IMVI melanoma
T-47D breast = test system: T-47D breast
EKVX NSCLC = test system: EKVX NSCLC
NCI-H460 lung = test system: NCI-H460 lung
NCI/ADR-RES ovarian = test system: NCI/ADR-RES ovarian
KM12 colon = test system: KM12 colon
OVCAR-8 ovarian = test system: OVCAR-8 ovarian
HCC-2998 colon = test system: HCC-2998 colon
HCT-116 colon = test system: HCT-116 colon
HOP-92 NSCLC = test system: HOP-92 NSCLC
IGROV1 ovarian = test system: IGROV1 ovarian
NCI-H522 lung = test system: NCI-H522 lung
OVCAR-3 ovarian = test system: OVCAR-3 ovarian
MCF7 breast = test system: MCF7 breast
TK-10 renal = test system: TK-10 renal
786-0 renal = test system: 786-0 renal
MDA-MB-231 breast = test system: MDA-MB-231 breast
COLO 205 colon = test system: COLO 205 colon
HL-60(TB) leukemia = test system: HL-60(TB) leukemia
CCRF-CEM leukemia = test system: CCRF-CEM leukemia
SK-MEL-5 melanoma = test system: SK-MEL-5 melanoma
RXF 393 renal = test system: RXF 393 renal
HCT-15 colon = test system: HCT-15 colon
SNB-19 CNS = test system: SNB-19 CNS
SF-539 CNS = test system: SF-539 CNS

## COc1ccc(NC(C)=O)cc1N1C(=O)/C(=C\c2cccc(Oc3ccccc3)c2)SC1c1ccccc1 (stereo not drawn)
MDA-N
  TGI: 81.9 µM
RPMI-8226 leukemia
  TGI: 61.9 µM
DU-145 prostate
  TGI: > 100 µM
MOLT-4 leukemia
  TGI: 82.6 µM
M14 melanoma
  TGI: > 100 µM
SK-OV-3 ovarian
  TGI: > 100 µM
NCI-H226 lung
  TGI: > 100 µM
A498 renal
  TGI: > 100 µM
SNB-75 CNS
  TGI: > 100 µM
UACC-257 melanoma
  TGI: > 100 µM
NCI-H23 lung
  TGI: > 100 µM
MDA-MB-435
  TGI: > 100 µM
SK-MEL-28 melanoma
  TGI: > 100 µM
BT-549 breast
  TGI: > 100 µM
SK-MEL-2 melanoma
  TGI: > 100 µM
HOP-62 NSCLC
  TGI: > 100 µM
PC-3 prostate
  TGI: > 100 µM
U251 CNS
  TGI: > 100 µM
OVCAR-5 ovarian
  TGI: > 100 µM
SW-620 colon
  TGI: 71.1 µM
SN12C renal
  TGI: 64.6 µM
ACHN renal
  TGI: > 100 µM
SF-295 CNS
  TGI: > 100 µM
UO-31 renal
  TGI: > 100 µM
UACC-62 melanoma
  TGI: > 100 µM
MALME-3M melanoma
  TGI: > 100 µM
A549 NSCLC
  TGI: > 100 µM
K-562 leukemia
  TGI: > 100 µM
HT29 colon
  TGI: 45.5 µM
OVCAR-4 ovarian
  TGI: > 100 µM
CAKI-1 renal
  TGI: > 100 µM
SR leukemia
  TGI: 29.4 µM
LOX IMVI melanoma
  TGI: 55.5 µM
T-47D breast
  TGI: > 100 µM
EKVX NSCLC
  TGI: > 100 µM
NCI-H460 lung
  TGI: > 100 µM
NCI/ADR-RES ovarian
  TGI: 54.8 µM
KM12 colon
  TGI: > 100 µM
OVCAR-8 ovarian
  TGI: 64.8 µM
HCC-2998 colon
  TGI: > 100 µM
HCT-116 colon
  TGI: 23.8 µM
HOP-92 NSCLC
  TGI: 79.6 µM
IGROV1 ovarian
  TGI: > 100 µM
NCI-H522 lung
  TGI: > 100 µM
OVCAR-3 ovarian
  TGI: 71.3 µM
MCF7 breast
  TGI: > 100 µM
TK-10 renal
  TGI: > 100 µM
786-0 renal
  TGI: > 100 µM
MDA-MB-231 breast
  TGI: > 100 µM
COLO 205 colon
  TGI: 39.9 µM
HL-60(TB) leukemia
  TGI: 37.9 µM
CCRF-CEM leukemia
  TGI: 67.2 µM
SK-MEL-5 melanoma
  TGI: > 100 µM
RXF 393 renal
  TGI: > 100 µM
HCT-15 colon
  TGI: > 100 µM
SNB-19 CNS
  TGI: > 100 µM

## CN1C(=O)C(O)C[C@@H]1c1ccc(F)cc1 (stereo partly drawn)
MDA-N
  TGI: > 100 µM
RPMI-8226 leukemia
  TGI: > 100 µM
DU-145 prostate
  TGI: > 100 µM
MOLT-4 leukemia
  TGI: > 100 µM
M14 melanoma
  TGI: > 100 µM
SK-OV-3 ovarian
  TGI: > 100 µM
NCI-H226 lung
  TGI: > 100 µM
UACC-257 melanoma
  TGI: > 100 µM
NCI-H23 lung
  TGI: > 100 µM
MDA-MB-435
  TGI: > 100 µM
SK-MEL-28 melanoma
  TGI: > 100 µM
BT-549 breast
  TGI: > 100 µM
SK-MEL-2 melanoma
  TGI: > 100 µM
HOP-62 NSCLC
  TGI: > 100 µM
PC-3 prostate
  TGI: > 100 µM
U251 CNS
  TGI: > 100 µM
OVCAR-5 ovarian
  TGI: > 100 µM
SN12C renal
  TGI: > 100 µM
ACHN renal
  TGI: > 100 µM
SF-295 CNS
  TGI: > 100 µM
UO-31 renal
  TGI: > 100 µM
UACC-62 melanoma
  TGI: > 100 µM
A549 NSCLC
  TGI: > 100 µM
HT29 colon
  TGI: > 100 µM
OVCAR-4 ovarian
  TGI: > 100 µM
CAKI-1 renal
  TGI: > 100 µM
SR leukemia
  TGI: > 100 µM
LOX IMVI melanoma
  TGI: > 100 µM
T-47D breast
  TGI: > 100 µM
EKVX NSCLC
  TGI: > 100 µM
HCC-2998 colon
  TGI: > 100 µM
HCT-116 colon
  TGI: > 100 µM
HOP-92 NSCLC
  TGI: > 100 µM
IGROV1 ovarian
  TGI: > 100 µM
OVCAR-3 ovarian
  TGI: > 100 µM
MCF7 breast
  TGI: > 100 µM
TK-10 renal
  TGI: > 100 µM
786-0 renal
  TGI: > 100 µM
SF-539 CNS
  TGI: > 100 µM
MDA-MB-231 breast
  TGI: > 100 µM
COLO 205 colon
  TGI: > 100 µM
HL-60(TB) leukemia
  TGI: > 100 µM
CCRF-CEM leukemia
  TGI: > 100 µM
SK-MEL-5 melanoma
  TGI: > 100 µM
RXF 393 renal
  TGI: > 100 µM
HCT-15 colon
  TGI: > 100 µM
SNB-19 CNS
  TGI: > 100 µM
